Results as given in the supplement of paper PMC10307832.

Columns and labels:
Test in all cases: relative viability (nuclei count vs DMSO), 5 days (fraction); higher = more cells survive
KIN001-266 + Navitoclax = compound: CCN1CCC(CC1)N2C=C(N=N2)CNC3=CC4=C(C(=CN=C4C(=C3)Cl)C#N)NC5=CC(=C(C=C5)F)Cl [KIN001-266] + CC1(C)CCC(c2ccc(Cl)cc2)=C(CN2CCN(c3ccc(C(=O)NS(=O)(=O)c4ccc(N[C@H](CCN5CCOCC5)CSc5ccccc5)c(S(=O)(=O)C(F)(F)F)c4)cc3)CC2)C1 [Navitoclax] (partner 0.5 µM)
Method in brief: (§1)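 Lung cancer cell lines in 1536-well plates were dosed by pin tool the day after seeding, either with one drug alone or with a fixed anchor-drug dose plus five library-drug doses (not always all listed) in √10 steps. After 5 days, cells were fixed and their nuclei stained in one step (final 0.05% Triton X-100, 1% formaldehyde, 1 ug/ml Hoechst), then counted on 4× images. Relative viability is the nuclei count in treated wells divided by that in vehicle wells. Values are medians of duplicate plates.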

KIN001-266 + Trametinib = compound: CCN1CCC(CC1)N2C=C(N=N2)CNC3=CC4=C(C(=CN=C4C(=C3)Cl)C#N)NC5=CC(=C(C=C5)F)Cl [KIN001-266] + CC(=O)Nc1cccc(-n2c(=O)n(C3CC3)c(=O)c3c(Nc4ccc(I)cc4F)n(C)c(=O)c(C)c32)c1 [Trametinib] (partner 0.02 µM)
Method in brief: as §1

KIN001-266 + Pemetrexed = compound: CCN1CCC(CC1)N2C=C(N=N2)CNC3=CC4=C(C(=CN=C4C(=C3)Cl)C#N)NC5=CC(=C(C=C5)F)Cl [KIN001-266] + Nc1nc2[nH]cc(CCc3ccc(C(=O)N[C@@H](CCC(=O)O)C(=O)O)cc3)c2c(=O)[nH]1 [Pemetrexed] (partner 0.2 µM)
Method in brief: as §1

KIN001-266 + Phenformin = compound: CCN1CCC(CC1)N2C=C(N=N2)CNC3=CC4=C(C(=CN=C4C(=C3)Cl)C#N)NC5=CC(=C(C=C5)F)Cl [KIN001-266] + N=C(N)NC(=N)NCCc1ccccc1 [Phenformin] (partner 250 µM)
Method in brief: as §1

Cell Line	relative viability (KIN001-266 + Navitoclax; first compound 0.08 µM)	relative viability (KIN001-266 + Navitoclax; first compound 0.253 µM)	relative viability (KIN001-266 + Navitoclax; first compound 0.8 µM)	relative viability (KIN001-266 + Navitoclax; first compound 2.53 µM)	relative viability (KIN001-266 + Navitoclax; first compound 8 µM)	relative viability (KIN001-266 + Trametinib; first compound 0.08 µM)	relative viability (KIN001-266 + Trametinib; first compound 0.253 µM)	relative viability (KIN001-266 + Trametinib; first compound 0.8 µM)	relative viability (KIN001-266 + Trametinib; first compound 2.53 µM)	relative viability (KIN001-266 + Trametinib; first compound 8 µM)	relative viability (KIN001-266 + Pemetrexed; first compound 0.08 µM)	relative viability (KIN001-266 + Pemetrexed; first compound 0.253 µM)	relative viability (KIN001-266 + Pemetrexed; first compound 0.8 µM)	relative viability (KIN001-266 + Pemetrexed; first compound 2.53 µM)	relative viability (KIN001-266 + Pemetrexed; first compound 8 µM)	relative viability (KIN001-266 + Phenformin; first compound 0.08 µM)	relative viability (KIN001-266 + Phenformin; first compound 0.253 µM)	relative viability (KIN001-266 + Phenformin; first compound 0.8 µM)	relative viability (KIN001-266 + Phenformin; first compound 2.53 µM)	relative viability (KIN001-266 + Phenformin; first compound 8 µM)
NCI-H2228	0.738	0.937	1.4	0.851	0.514	0.564	0.448	0.457	0.357	0.402	0.329	0.325	0.35	0.322	0.352	0.392	0.282	0.322	0.296	0.281
NCI-H2087	1.17	0.93	0.916	0.97	0.56	0.254	0.276	0.16	0.175	0.175	0.646	0.716	0.637	0.581	0.587	0.439	0.467	0.38	0.352	0.234
LU99A	0.917	0.749	0.735	0.752	0.569	0.546	0.489	0.494	0.552	0.458	0.168	0.172	0.124	0.182	0.217	0.971	0.805	0.815	0.649	0.682
NCI-H1355	0.981	0.955	0.963	0.873	0.812	0.445	0.473	0.48	0.406	0.394	0.987	0.995	1.1	1	1.01	0.454	0.419	0.441	0.414	0.373
NCI-H520	1.11	1.05	1.16	0.926	0.967	0.727	0.628	0.561	0.624	0.645	0.709	0.714	0.671	0.565	0.65	0.793	0.633	0.706	0.376	0.58
NCI-H661						0.566	0.624	0.595	0.5	0.435	0.913	0.946	0.932	0.856	0.741	0.297	0.278	0.284	0.263	0.258
NCI-H650						0.982	0.974	0.942	0.944	0.979	1.15	0.988	1.09	1.02	0.946	0.499	0.503	0.495	0.463	0.507
NCI-H647	1.07	1.28	1.19	1.15	1.13	0.452	0.443	0.474	0.419	0.375	0.195	0.216	0.181	0.158	0.198	0.65	0.552	0.557	0.468	0.426
201T	1.18	1.23	1.23	1.19	1.21	0.74	0.724	0.686	0.708	0.754	0.342	0.375	0.352	0.34	0.319	0.449	0.45	0.386	0.457	0.434
NCI-H838	1.09	1.19	1.22	1.08	0.867	0.535	0.494	0.557	0.465	0.385	0.242	0.249	0.26	0.249	0.236	0.668	0.624	0.595	0.574	0.427
SW 1573	1.05	1.05	1.03	0.91	0.643	0.575	0.493	0.603	0.557	0.464	0.809	0.792	0.94	0.713	0.751	0.347	0.425	0.334	0.262	0.165
PC-14	0.973	1.03	1.07	0.959	0.599	0.715	0.729	0.808	0.518	0.141	0.161	0.133	0.164	0.113	0.186	0.567	0.762	0.356	0.543	0.324
LK-2	0.956	0.917	1.11	0.844	1.13	0.891	0.781	0.877	0.847	0.721	0.275	0.237	0.211	0.158	0.273	0.538	0.352	0.342	0.281	0.288
LCLC-103H						0.715	0.73	0.592	0.645	0.668	0.471	0.482	0.47	0.426	0.514	0.389	0.28	0.285	0.361	0.332
ABC-1																0.255	0.241	0.283	0.251	0.312
NCI-H358						0.174	0.17	0.138	0.115	0.117	0.187	0.163	0.178	0.158	0.146	0.361	0.367	0.343	0.277	0.251
NCI-H1563											0.885	0.714	0.865	0.793	0.914	0.663	0.694	0.669	0.583	0.62
EBC-1	0.398	0.413	0.409	0.359	0.217															
Calu-6	0.868	0.877	0.859	0.64	0.437															
